# Laboratory results published in publication PMC9964244, “Effects of Dimerization, Dendrimerization, and Chirality in p-BthTX-I Peptide Analogs on the Antibacterial Activity and Enzymatic Inhibition of the SARS-CoV-2 PL^pro Protein” (Pharmaceutics, 2023).
# Values joined by “and” are separate entries in the source; they are usually repeats but may differ in a detail not shown here. Identical values can stand only once. Bridge positions count the residues as written; N and C are the ends. Square brackets hold non-standard residues; d marks the D form. Peptide text beside a SMILES is read from it. I, II: the chains in the order shown.
# Key:
# S. aureus ATCC 25923 = experiment: MIC/MBC, broth microdilution and subculture on CA-MH agar; format: cell-based, Staphylococcus aureus; details: triplicate, mode; for MIC: broth microdilution; for MBC: subculture on CA-MH agar, 37 °C, 24 h
# Experimental: (§1) Bacterial isolates from the American Type Culture Collection (ATCC) were obtained from the Collection of Reference Bacteria on Health Surveillance, Oswaldo Cruz Foundation (FIOCRUZ) after phenotypic and molecular quality control and were registered at SISGEN under the number ADB556B. The minimum inhibitory concentration (MIC) was determined as previously described by Santos-Filho et al., 2021 [17], using the broth microdilution method. The MIC was the lowest concentration that inhibited microbial growth. […] MBC was defined as the lowest peptide concentration with no visible growth on the plate. […] The assay was performed in triplicate, and the values represent the mode of the obtained results.
# (§2) Thus, to assess the relevance of the antimicrobial effect of p-Bth analogs, their Minimum Inhibitory Concentration (MIC) and Minimum Bactericidal Concentration (MBC) were analyzed against relevant bacteria. The evaluated strains were the Gram-positives: S. aureus ATCC 25923, S. epidermidis ATCC 35984, E. faecalis ATCC 29212, and E. faecium ATCC […] (Table 1); and the Gram-negatives: K. pneumoniae ATCC 700603, E. coli ATCC 25922, A. baumannii ATCC 19606, and P. aeruginosa ATCC 27853 (Table 2).
# E. coli ATCC 25922 = experiment: as above; format: cell-based; parameters: key to Act (antibacterial activity): Bc, bactericidal; Bs, bacteriostatic; details: for MIC: broth microdilution; for MIC / MBC: triplicate, mode; for MBC: subculture on CA-MH agar, 37 °C, 24 h
# Experimental: as §1, §2
# E. faecalis ATCC 29212 = experiment: as above; format: cell-based; parameters: key to Act (antibacterial activity): Bc, bactericidal; Bs, bacteriostatic; details: for MIC: broth microdilution; for MIC / MBC: triplicate, mode; for MBC: subculture on CA-MH agar, 37 °C, 24 h
# Experimental: as §1, §2
# [1] = system: S. epidermidis ATCC 35984; experiment: as above; format: cell-based; parameters: key to Act (antibacterial activity): Bc, bactericidal; Bs, bacteriostatic; details: for MIC: broth microdilution; for MIC / MBC: triplicate, mode; for MBC: subculture on CA-MH agar, 37 °C, 24 h
# Experimental: as §1, §2
# E. faecium ATCC 700221 = experiment: as above; format: cell-based, Enterococcus faecium; parameters: key to Act (antibacterial activity): Bc, bactericidal; Bs, bacteriostatic; details: for MIC: broth microdilution; for MIC / MBC: triplicate, mode; for MBC: subculture on CA-MH agar, 37 °C, 24 h
# Experimental: as §1, §2
# [2] = system: K. pneumoniae ATCC 700603; experiment: as above; format: cell-based, Klebsiella pneumoniae; parameters: key to Act (antibacterial activity): Bc, bactericidal; Bs, bacteriostatic; details: for MIC: broth microdilution; for MIC / MBC: triplicate, mode; for MBC: subculture on CA-MH agar, 37 °C, 24 h
# Experimental: as §1, §2
# A. baumannii ATCC 19606 = experiment: as above; format: cell-based, Acinetobacter baumannii; parameters: key to Act (antibacterial activity): Bc, bactericidal; Bs, bacteriostatic; details: for MIC: broth microdilution; for MIC / MBC: triplicate, mode; for MBC: subculture on CA-MH agar, 37 °C, 24 h
# Experimental: as §1, §2
# P. aeruginosa ATCC 27853 = experiment: as above; format: cell-based, Pseudomonas aeruginosa; parameters: key to Act (antibacterial activity): Bc, bactericidal; Bs, bacteriostatic; details: for MBC: subculture on CA-MH agar, 37 °C, 24 h
# Experimental: as §1, §2
# SARS-CoV-2 PL^pro [3] = molecular target: T1, SARS-CoV-2 PL^pro (Severe acute respiratory syndrome coronavirus 2, UniProt P0DTD1); experiment: PL^pro enzymatic inhibition assay; format: biochemical; details: PL^pro from SARS-CoV-2
# T1 construct: made in house
# [4] = Carboxyfluorescein leakage, vesicle permeabilization; details: 95% POPC / 5% POPG vesicles
# Experimental: The permeabilization of lipid vesicles containing carboxyfluorescein was carried out using a spectrofluorometer model Fluorolog-3 FL3-122 from Horiba Jobin Yvon (Newark, NJ, USA) (dimers and tetramers) or in a spectrofluorometer model RF-1501 Shimadzu (Kyoto, Japan) (monomer). For RF-1501, the quantification of the fluorescence intensity was performed every 20 s. Two vesicle compositions were used: (1) 80% 1-palmitoyl-2-oleoyl-sn-glycero-3-phosphoethanolamine (POPE) and 20% 1-palmitoyl-2-oleoyl-sn-glycero- 3-phospho-(10-rac-glycerol) (POPG); and (2) 95% 1-palmitoyl-2-oleoyl-sn-glycero-3-phosphocholine (POPC) and 5% POPG. The percentage of leakage was obtained through the following equation:% release = (Fmeasured − Finitial)/(Ffinal − Finitial) × 100, where Ffinal is the average fluorescence value obtained after the addition of Triton, Finitial is the average of the initial values of the run before the addition of the peptide, and Fmeasured are the fluorescence values obtained at each point of the experiment.
# Here, we evaluated two systems of membrane mimetics, including vesicles with a composition of 80% POPE and 20% POPG, and another with 95% POPC and 5% POPG. The first is widely used as a model of bacterial membranes, specifically of E. coli membrane. Membranes constituting POPC and POPG were used to mimic mammalian membranes due to the presence of choline-containing lipids in animal membranes.
# SARS-CoV-2 PL^pro [5] = molecular target: T1, SARS-CoV-2 PL^pro; details: PL^pro from SARS-CoV-2; peptide 10 µM; ref 19 (Freire et al., 2021); cited from earlier work
# Experimental: Table 3 PL^pro activity by peptide analogs of p-BThTX-I at the concentration of 10 μM and IC50 values. Representative concentration–response inhibition curves against PL^pro from SARS-CoV-2 are presented in the Supplementary Material (Figure S7). | column: Inhibition (%) at 10 µM; IC50 μM
# SARS-CoV-2 = details: Vero cells; cited from earlier work
# Excerpt: In December 2019, the first case of viral infection with a new coronavirus was reported in China, which was later named severe acute respiratory syndrome coronavirus 2 (SARS-CoV-2), and the disease caused by this was named coronavirus-2019 or COVID-19 by the WHO. This disease has taken on great proportions, causing a pandemic scenario and great global concern. Even with the improvements in disease control, there is still a need for new, specific antiviral therapeutic options. As antimicrobial peptides also have antiviral action, the L-dimer, D-dimer and L-tetramer, in addition to ...
# [6] = MBC/MIC ratio >4 suggests bacteriostatic
SMILES,MIC (S. aureus ATCC 25923),MBC (S. aureus ATCC 25923) [µg/mL],MIC (E. coli ATCC 25922),MBC (E. coli ATCC 25922) [µg/mL],MIC (E. faecalis ATCC 29212),MBC (E. faecalis ATCC 29212) [µg/mL],MIC [1],MBC [1] [µg/mL],MIC (E. faecium ATCC 700221),MBC (E. faecium ATCC 700221) [µg/mL],MIC [2],MBC [2] [µg/mL],MIC (A. baumannii ATCC 19606) [µM],MBC (A. baumannii ATCC 19606) [µg/mL],"MBC (P. aeruginosa ATCC 27853; triplicate, mode) [µg/mL]",also measured
CC(C)C[C@H](NC(=O)[C@H](Cc1c[nH]cn1)NC(=O)[C@H](Cc1ccc(O)cc1)NC(=O)[C@H](CCCNC(=N)N)NC(=O)[C@H](Cc1ccc(O)cc1)NC(=O)[C@H](CCCCN)NC(=O)[C@@H](N)CCCCN)C(=O)N[C@@H](CCCCN)C(=O)N1CCC[C@H]1C(=O)N[C@@H](Cc1ccccc1)C(N)=O [L-monomer] (H-KKYRYHLKPF-NH2),>371 µM,>512,>371 µM,>512,>371 µM,>512,>371 µM,>512,>371 µM,>512,>371 µM,>512,>371,>512,>512,inhibition at 10 µM (SARS-CoV-2 PL^pro [3]; peptide 10 µM): 93.3%; IC50 (SARS-CoV-2 PL^pro [3]; two independent experiments): 2100 ± 100 nM
CC(C)C[C@@H](NC(=O)[C@@H](Cc1c[nH]cn1)NC(=O)[C@@H](Cc1ccc(O)cc1)NC(=O)[C@@H](CCCNC(=N)N)NC(=O)[C@@H](Cc1ccc(O)cc1)NC(=O)[C@@H](CCCCN)NC(=O)[C@H](N)CCCCN)C(=O)N[C@H](CCCCN)C(=O)N1CCC[C@@H]1C(=O)N[C@H](Cc1ccccc1)C(=O)NCCCC[C@H](NC(=O)[C@@H](Cc1ccccc1)NC(=O)[C@H]1CCCN1C(=O)[C@@H](CCCCN)NC(=O)[C@@H](CC(C)C)NC(=O)[C@@H](Cc1c[nH]cn1)NC(=O)[C@@H](Cc1ccc(O)cc1)NC(=O)[C@@H](CCCNC(=N)N)NC(=O)[C@@H](Cc1ccc(O)cc1)NC(=O)[C@@H](CCCCN)NC(=O)[C@H](N)CCCCN)C(N)=O [D-dimer] (I: H-[dK][dK][dY][dR][dY][dH][dL][dK][dP][dF]K-NH2 / II: H-[dK][dK][dY][dR][dY][dH][dL][dK][dP][dF]; amide I:11-II:C; N-terminus assumed),256 μg/mL and 89 µM,>512,32 μg/mL and 11 µM,32,178 µM and 512 μg/mL,512,16 µg/mL,16,64 μg/mL and 22 µM,>256,64 μg/mL and 22 µM,128,5,64,512,"Act (antibacterial activity) (E. coli ATCC 25922; [6]): Bc; Act (antibacterial activity) (E. faecalis ATCC 29212; [6]): Bc; Act (antibacterial activity) [1, 6]: Bc; Act (antibacterial activity) (E. faecium ATCC 700221; [6]): Bs; Act (antibacterial activity) [2, 6]: Bc; Act (antibacterial activity) (A. baumannii ATCC 19606; [6]): Bc; Act (antibacterial activity) (P. aeruginosa ATCC 27853; [6]): Bc; MIC (P. aeruginosa ATCC 27853; broth microdilution, triplicate, mode): 256 μg/mL and 89 µM; fluorescein leakage ([4]; concentration not stated in the sentence (10 and 50 µM tested)): 20%; CF leakage ([4]; peptide 50 µM): 20%; Inhibition (%) at 10 µM (SARS-CoV-2 PL^pro [5]): 96.35 ± 0.91%; percentage inhibition of SARS-CoV-2 infection (SARS-CoV-2): 69%"
